From ChEMBL document CHEMBL1909046, “DrugMatrix in vitro pharmacology data”

How the values were obtained:
[1] = molecular target: Vascular endothelial growth factor receptor 1 (Homo sapiens, UniProt P17948); type: cell-based; conditions: huvec; also: in other assays of this panel Not Active means under 50% inhibition at 10 µM
[2] = molecular target: Cytochrome P450 2D6 (Homo sapiens, UniProt P10635); conditions: bti-tn-5b1-4; also: in other assays of this panel Not Active means under 50% inhibition at 10 µM
[3] = molecular target: T1, Progesterone receptor (Bos taurus, UniProt Q690N0); test: DRUGMATRIX: Progesterone radioligand binding (ligand: [3H] R-5020); type: tissue-based, Uterus; conditions: Not Active = under 50% inhibition at 10 µM
T1 sequence (Q690N0 whole entry): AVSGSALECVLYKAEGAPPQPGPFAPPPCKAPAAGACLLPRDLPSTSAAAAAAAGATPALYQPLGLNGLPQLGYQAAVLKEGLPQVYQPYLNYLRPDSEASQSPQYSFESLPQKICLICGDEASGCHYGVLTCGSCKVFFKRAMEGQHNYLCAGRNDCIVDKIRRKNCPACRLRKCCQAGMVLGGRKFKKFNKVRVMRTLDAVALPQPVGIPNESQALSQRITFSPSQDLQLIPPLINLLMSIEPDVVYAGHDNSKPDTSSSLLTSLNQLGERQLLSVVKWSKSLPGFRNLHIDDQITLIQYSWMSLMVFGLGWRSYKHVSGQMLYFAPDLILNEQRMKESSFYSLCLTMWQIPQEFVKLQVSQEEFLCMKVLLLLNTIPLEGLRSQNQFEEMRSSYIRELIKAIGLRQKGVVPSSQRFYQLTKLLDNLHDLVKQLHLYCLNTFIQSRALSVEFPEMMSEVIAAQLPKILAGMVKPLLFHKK

[4] = molecular target: T2, Cysteinyl leukotriene receptor 1 (Homo sapiens, UniProt Q9Y271); type: cell membranes, CHO-K1, Membrane; conditions: cho-k1; also: in other assays of this panel Not Active means under 50% inhibition at 10 µM
T2 sequence (Q9Y271 whole entry): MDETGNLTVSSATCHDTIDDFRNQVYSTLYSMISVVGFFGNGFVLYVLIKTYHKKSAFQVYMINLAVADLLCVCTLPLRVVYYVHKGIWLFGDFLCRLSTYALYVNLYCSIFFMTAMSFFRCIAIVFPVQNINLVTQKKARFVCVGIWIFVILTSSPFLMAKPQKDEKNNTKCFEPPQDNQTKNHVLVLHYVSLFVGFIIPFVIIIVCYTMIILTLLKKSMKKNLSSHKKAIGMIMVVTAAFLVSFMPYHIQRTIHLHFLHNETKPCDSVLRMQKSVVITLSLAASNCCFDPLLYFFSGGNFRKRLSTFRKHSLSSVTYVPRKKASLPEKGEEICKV

[5] = molecular target: T3, Cytochrome P450 2A6 (Homo sapiens, UniProt P11509); conditions: bti-tn-5b1-4; also: in other assays of this panel Not Active means under 50% inhibition at 10 µM
T3 sequence (P11509 whole entry): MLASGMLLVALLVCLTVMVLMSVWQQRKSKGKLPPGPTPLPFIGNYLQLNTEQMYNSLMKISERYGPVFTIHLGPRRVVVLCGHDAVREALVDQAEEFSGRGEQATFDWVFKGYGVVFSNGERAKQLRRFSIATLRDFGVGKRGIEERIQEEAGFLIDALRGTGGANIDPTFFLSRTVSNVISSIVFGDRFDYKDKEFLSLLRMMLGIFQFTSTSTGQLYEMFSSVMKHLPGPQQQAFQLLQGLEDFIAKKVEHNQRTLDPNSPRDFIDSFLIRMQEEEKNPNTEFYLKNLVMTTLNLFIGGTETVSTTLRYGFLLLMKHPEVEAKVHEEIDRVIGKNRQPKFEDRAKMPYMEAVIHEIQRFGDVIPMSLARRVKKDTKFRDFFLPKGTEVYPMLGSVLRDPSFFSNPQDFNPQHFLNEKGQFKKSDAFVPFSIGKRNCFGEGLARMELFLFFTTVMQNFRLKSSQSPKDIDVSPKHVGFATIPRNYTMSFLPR

[6] = DRUGMATRIX: Phosphodiesterase PDE3 enzyme inhibition (substrate: [3H]cAMP + cAMP); type: tissue-based, Homo sapiens; conditions: platelet; Not Active = under 50% inhibition at 10 µM
[7] = molecular target: Cannabinoid receptor 1 (Homo sapiens, UniProt P21554); type: cell membranes, Chem-1, Membrane; conditions: chem-1; also: in other assays of this panel Not Active means under 50% inhibition at 10 µM
[8] = molecular target: Estrogen receptor beta (Homo sapiens, UniProt Q92731); conditions: sf9; also: in other assays of this panel Not Active means under 50% inhibition at 10 µM
[9] = molecular target: Voltage-gated inwardly rectifying potassium channel KCNH2 (Homo sapiens, UniProt Q12809); conditions: hek293; also: in other assays of this panel Not Active means under 50% inhibition at 10 µM
[10] = molecular target: Mu-type opioid receptor (Homo sapiens, UniProt P35372); test: DRUGMATRIX: Opiate mu (OP3, MOP) radioligand binding (ligand: [3H] Diprenorphine); type: cell membranes, CHO-K1, Membrane; conditions: cho-k1; Not Active = under 50% inhibition at 10 µM
Sequence of Mu-type opioid receptor (P35372 whole entry): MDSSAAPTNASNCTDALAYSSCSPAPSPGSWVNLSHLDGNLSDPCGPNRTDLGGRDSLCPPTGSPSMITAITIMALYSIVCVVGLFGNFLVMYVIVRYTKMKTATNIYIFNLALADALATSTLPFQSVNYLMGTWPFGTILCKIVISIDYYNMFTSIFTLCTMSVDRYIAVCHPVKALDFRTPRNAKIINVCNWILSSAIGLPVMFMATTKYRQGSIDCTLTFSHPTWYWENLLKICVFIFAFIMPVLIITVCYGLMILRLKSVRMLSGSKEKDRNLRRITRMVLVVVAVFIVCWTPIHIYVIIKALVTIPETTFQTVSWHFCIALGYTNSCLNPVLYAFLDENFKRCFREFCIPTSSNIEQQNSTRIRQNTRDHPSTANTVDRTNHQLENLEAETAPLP

Sequence of Voltage-gated inwardly rectifying potassium channel KCNH2 (Q12809 whole entry): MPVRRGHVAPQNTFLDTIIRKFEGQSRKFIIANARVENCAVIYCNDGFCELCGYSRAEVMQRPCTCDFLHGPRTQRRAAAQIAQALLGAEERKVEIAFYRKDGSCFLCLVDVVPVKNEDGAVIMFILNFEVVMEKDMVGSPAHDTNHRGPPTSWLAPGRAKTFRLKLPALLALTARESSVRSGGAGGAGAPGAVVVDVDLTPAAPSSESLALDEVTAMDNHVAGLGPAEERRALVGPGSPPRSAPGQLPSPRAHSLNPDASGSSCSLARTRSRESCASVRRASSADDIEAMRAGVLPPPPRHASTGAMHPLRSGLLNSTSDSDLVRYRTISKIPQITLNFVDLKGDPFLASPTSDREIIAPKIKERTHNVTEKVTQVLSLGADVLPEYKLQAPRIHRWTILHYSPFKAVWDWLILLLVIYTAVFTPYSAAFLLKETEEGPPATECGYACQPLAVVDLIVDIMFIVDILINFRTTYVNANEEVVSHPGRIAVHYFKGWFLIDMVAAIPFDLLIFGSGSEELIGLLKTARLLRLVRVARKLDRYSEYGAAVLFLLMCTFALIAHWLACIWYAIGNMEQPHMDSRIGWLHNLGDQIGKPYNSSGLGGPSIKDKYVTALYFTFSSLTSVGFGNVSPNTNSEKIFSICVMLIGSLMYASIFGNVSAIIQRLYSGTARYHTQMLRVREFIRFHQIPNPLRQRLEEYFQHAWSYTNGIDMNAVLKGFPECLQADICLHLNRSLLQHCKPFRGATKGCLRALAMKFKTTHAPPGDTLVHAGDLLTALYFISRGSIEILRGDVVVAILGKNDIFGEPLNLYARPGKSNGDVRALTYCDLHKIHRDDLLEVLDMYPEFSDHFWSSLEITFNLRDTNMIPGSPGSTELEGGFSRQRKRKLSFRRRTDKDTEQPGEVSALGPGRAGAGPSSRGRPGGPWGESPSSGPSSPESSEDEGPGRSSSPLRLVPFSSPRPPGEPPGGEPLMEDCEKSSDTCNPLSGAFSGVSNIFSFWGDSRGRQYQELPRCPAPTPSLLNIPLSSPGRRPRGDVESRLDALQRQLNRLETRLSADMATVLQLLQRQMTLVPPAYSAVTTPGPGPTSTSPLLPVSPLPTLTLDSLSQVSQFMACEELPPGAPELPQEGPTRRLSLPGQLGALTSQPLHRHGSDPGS
Sequence of Cannabinoid receptor 1 (P21554 whole entry): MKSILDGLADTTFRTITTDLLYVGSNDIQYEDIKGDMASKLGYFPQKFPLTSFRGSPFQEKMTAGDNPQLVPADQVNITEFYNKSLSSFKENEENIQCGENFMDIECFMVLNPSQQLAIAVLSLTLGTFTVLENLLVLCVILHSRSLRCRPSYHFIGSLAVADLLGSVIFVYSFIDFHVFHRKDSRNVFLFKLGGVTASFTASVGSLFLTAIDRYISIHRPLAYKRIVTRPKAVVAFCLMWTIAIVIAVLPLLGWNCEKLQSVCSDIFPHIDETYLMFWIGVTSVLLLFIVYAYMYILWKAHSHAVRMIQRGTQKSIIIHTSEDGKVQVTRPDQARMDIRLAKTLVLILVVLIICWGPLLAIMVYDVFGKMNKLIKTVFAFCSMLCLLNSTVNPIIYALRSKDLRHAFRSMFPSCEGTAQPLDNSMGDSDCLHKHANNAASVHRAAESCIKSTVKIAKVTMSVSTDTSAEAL
Sequence of Vascular endothelial growth factor receptor 1 (P17948 whole entry): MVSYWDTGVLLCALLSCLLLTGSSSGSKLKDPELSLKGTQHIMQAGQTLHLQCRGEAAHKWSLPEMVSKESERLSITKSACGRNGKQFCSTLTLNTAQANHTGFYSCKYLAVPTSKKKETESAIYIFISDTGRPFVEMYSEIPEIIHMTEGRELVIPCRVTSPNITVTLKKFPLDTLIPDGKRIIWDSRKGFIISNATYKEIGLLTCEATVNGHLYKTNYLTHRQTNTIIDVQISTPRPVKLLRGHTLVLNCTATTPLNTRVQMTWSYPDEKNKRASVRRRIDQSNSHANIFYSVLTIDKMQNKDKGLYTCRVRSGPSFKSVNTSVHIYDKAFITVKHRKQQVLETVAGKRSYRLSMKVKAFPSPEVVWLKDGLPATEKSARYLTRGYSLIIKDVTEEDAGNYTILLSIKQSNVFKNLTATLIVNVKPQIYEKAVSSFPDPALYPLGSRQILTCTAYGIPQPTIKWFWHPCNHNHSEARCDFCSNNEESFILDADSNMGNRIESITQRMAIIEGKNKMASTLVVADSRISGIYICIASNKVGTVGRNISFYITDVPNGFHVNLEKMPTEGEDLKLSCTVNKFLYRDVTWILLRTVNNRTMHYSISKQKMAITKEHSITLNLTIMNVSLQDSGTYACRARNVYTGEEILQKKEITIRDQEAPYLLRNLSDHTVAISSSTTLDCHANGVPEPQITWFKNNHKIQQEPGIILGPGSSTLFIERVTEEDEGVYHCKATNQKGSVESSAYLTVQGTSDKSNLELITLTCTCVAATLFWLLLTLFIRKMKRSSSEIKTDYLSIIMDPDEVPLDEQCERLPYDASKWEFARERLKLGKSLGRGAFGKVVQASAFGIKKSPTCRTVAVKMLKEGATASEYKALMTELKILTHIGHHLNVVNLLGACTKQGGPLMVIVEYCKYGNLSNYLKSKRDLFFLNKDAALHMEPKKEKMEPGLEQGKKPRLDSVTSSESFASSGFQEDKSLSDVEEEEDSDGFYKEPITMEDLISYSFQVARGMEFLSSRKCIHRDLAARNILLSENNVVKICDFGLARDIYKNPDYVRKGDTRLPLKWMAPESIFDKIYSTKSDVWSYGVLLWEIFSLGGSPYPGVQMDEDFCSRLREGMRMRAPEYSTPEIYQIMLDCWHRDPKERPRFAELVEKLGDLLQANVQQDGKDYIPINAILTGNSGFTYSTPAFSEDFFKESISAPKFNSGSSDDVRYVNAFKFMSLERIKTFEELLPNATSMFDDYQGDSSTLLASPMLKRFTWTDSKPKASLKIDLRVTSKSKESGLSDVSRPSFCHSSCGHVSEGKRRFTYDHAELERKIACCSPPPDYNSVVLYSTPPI
Sequence of Cytochrome P450 2D6 (P10635 whole entry): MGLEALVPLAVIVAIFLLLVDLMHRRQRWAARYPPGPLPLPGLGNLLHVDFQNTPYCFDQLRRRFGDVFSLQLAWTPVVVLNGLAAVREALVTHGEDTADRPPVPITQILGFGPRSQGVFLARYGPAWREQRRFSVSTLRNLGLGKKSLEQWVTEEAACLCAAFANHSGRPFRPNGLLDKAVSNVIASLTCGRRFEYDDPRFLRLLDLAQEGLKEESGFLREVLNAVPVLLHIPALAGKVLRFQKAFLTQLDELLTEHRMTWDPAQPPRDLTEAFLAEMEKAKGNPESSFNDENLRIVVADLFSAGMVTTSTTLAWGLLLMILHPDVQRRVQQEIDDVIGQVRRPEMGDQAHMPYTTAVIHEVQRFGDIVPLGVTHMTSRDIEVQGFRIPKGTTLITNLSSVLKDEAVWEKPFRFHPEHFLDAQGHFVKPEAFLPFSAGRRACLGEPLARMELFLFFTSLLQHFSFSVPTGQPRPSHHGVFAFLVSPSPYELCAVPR
Sequence of Estrogen receptor beta (Q92731 whole entry): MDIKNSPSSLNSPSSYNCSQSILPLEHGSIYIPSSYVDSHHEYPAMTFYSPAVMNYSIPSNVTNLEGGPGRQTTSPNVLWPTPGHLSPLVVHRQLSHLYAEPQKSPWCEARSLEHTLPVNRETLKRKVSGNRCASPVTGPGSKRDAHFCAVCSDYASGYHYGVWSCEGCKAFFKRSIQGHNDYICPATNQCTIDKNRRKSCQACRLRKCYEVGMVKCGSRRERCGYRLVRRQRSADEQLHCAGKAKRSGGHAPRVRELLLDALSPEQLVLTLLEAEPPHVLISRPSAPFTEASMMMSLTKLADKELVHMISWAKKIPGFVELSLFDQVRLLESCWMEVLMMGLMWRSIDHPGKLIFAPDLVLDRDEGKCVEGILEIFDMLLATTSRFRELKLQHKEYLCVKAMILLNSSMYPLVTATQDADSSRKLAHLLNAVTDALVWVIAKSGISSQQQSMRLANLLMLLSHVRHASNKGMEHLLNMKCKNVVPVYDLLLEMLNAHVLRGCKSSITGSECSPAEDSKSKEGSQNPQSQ

O=C(c1ccc(OCCN2CCCCC2)cc1)c1c(-c2ccc(O)cc2)sc2cc(O)ccc12 [RALOXIFENE]
Not Active: IC50 [1] | IC50 [2] | Ki [2] | IC50 [3] | IC50 [4] | IC50 [5] | Ki [5] | IC50 [6] | Ki [6] | IC50 [7] | IC50 [8] | IC50 [9] | Ki [9]

CC(C)c1nc(CN(C)C(=O)N[C@H](C(=O)N[C@@H](Cc2ccccc2)C[C@H](O)[C@H](Cc2ccccc2)NC(=O)OCc2cncs2)C(C)C)cs1 [RITONAVIR]
Not Active: IC50 [1] | IC50 [3] | IC50 [4] | IC50 [6] | Ki [6] | IC50 [7] | IC50 [8]

Cc1cc(C)nc(NS(=O)(=O)c2ccc(N)cc2)n1 [SULFAMETHAZINE]
Not Active: IC50 [1] | IC50 [2] | Ki [2] | IC50 [3] | IC50 [4] | IC50 [5] | Ki [5] | IC50 [6] | Ki [6] | IC50 [7] | IC50 [10] | IC50 [9] | Ki [9]

C[C@]1(Cn2ccnn2)[C@H](C(=O)O)N2C(=O)C[C@H]2S1(=O)=O [TAZOBACTAM]
Not Active: IC50 [1] | IC50 [2] | Ki [2] | IC50 [3] | IC50 [4] | IC50 [5] | Ki [5] | IC50 [6] | Ki [6] | IC50 [7] | IC50 [10] | IC50 [9] | Ki [9]

CC(=O)CC(c1ccccc1)c1c(O)c2ccccc2oc1=O (stereo unspecified) [WARFARIN]
Not Active: IC50 [1] | IC50 [2] | Ki [2] | IC50 [3] | IC50 [4] | IC50 [5] | Ki [5] | IC50 [6] | Ki [6] | IC50 [7] | IC50 [9] | Ki [9]

[Cl-].[Cl-].[Zn+2] [ZINC CHLORIDE]
Not Active: IC50 [1] | IC50 [2] | Ki [2] | IC50 [3] | IC50 [4] | IC50 [5] | Ki [5] | IC50 [6] | Ki [6] | IC50 [7] | IC50 [10] | IC50 [9] | Ki [9]
